What is called pIC50 is the IC50 on a negative log10 scale, so that one unit is a factor of ten.

26 compounds from patent publication US10087185B2 (Janssen Pharmaceutica NV, priority 2016, dated 2018) can be followed below.

pIC50: −log10 of the molar value.

This test addresses TARP γ8 dependent AMPA receptor (GRIA1o-CACNG8 fusion construct) (Homo sapiens (Human), UniProt P42261+Q8WXS5). Briefly: Calcium flux assay (FLIPR), inhibition of glutamate response of GluA1o-γ8 channel. It counts as cell-based. The following applies: HEK293 cells stably expressing GRIA1o-CACNG8 fusion; calcium flux after 15 μM glutamate; negative log of the IC50 in molar. From the text: This assay was used to test compounds for their ability to inhibit TARP γ8 dependent AMPA receptor activity. The AMPA receptor is a non-selective cation channel activated by glutamate. […] But, this desensitization is incomplete, and a substantial steady-state current remains in the sustained presence of glutamate (Cho et al. (2007). “Two families of TARP isoforms that have distinct effects on the kinetic properties of AMPA receptors and synaptic currents.” Neuron 55(6): 890-904).
An in vitro assay was used to determine the potency of test compounds as inhibitors of the glutamate response of the channel formed by GluA10-γ8. To ensure a 1:1 stoichiometry of GluA1o and γ8 subunits in the expressed channel, a fusion of the cDNAs for GRIA1o and CACNG8 was used. Following Shi et al (2009) “The stoichiometry of AMPA receptors and TARPs varies by neuronal cell type.” Neuron 62(5): 633-640), the C-terminus of the cDNA for GRIA1o was fused to the N-terminus of the cDNA for γ8. The linker sequence was […]. Channels expressed with this construct appear to have similar properties to channels formed by co-expression of GRIA1o with an excess of CACNG8 (Shi et al. 2009). A clonal cell line in HEK293 cells stably expressing this construct, with a geneticin selection marker, was generated for use in this assay.
Cell expressing the GRIA1o-CACNG8 fusion construct were grown in a monolayer in 96- or 384-well microtiter plates. They were washed with assay buffer (135 mM NaCl, 4 mM KCl, 3 mM CaCl2, 1 mM MgCl2, 5 mM glucose, 10 mM HEPES, pH 7.4, 300 mOs) using a Biotek EL405 plate washer. The cells were then loaded with a calcium-sensitive dye (Calcium-5 or Calcium-6, Molecular Devices) and the test compounds at a range of concentrations. Calcium flux following the addition of 15 μM glutamate was monitored using a Molecular Devices FLIPR Tetra.
The fluorescence in each well was normalized to the fluorescence of negative and positive control wells. The negative control wells had no added compounds, and the positive control wells had been incubated with 10 μM CP465022 (a non-subtype-selective AMPA receptor antagonist) (Lazzaro et al. (2002). “Functional characterization of CP-465,022, a selective, noncompetitive AMPA receptor antagonist.” Neuropharmacology 42(2): 143-153). The responses to glutamate as functions of the test compound concentrations were fitted to a four-parameter logistic function. The fitted parameter corresponding to the midpoint was taken to be the potency of inhibition of the compound. The data in Table 4 below illustrates the observed potency for the compounds described herein. pIC50 refers to the negative log of the IC50 in molar.

Sequence of TARP γ8 dependent AMPA receptor (GRIA1o-CACNG8 fusion construct) (P42261 other isoform, or with tags, fused parts or gaps): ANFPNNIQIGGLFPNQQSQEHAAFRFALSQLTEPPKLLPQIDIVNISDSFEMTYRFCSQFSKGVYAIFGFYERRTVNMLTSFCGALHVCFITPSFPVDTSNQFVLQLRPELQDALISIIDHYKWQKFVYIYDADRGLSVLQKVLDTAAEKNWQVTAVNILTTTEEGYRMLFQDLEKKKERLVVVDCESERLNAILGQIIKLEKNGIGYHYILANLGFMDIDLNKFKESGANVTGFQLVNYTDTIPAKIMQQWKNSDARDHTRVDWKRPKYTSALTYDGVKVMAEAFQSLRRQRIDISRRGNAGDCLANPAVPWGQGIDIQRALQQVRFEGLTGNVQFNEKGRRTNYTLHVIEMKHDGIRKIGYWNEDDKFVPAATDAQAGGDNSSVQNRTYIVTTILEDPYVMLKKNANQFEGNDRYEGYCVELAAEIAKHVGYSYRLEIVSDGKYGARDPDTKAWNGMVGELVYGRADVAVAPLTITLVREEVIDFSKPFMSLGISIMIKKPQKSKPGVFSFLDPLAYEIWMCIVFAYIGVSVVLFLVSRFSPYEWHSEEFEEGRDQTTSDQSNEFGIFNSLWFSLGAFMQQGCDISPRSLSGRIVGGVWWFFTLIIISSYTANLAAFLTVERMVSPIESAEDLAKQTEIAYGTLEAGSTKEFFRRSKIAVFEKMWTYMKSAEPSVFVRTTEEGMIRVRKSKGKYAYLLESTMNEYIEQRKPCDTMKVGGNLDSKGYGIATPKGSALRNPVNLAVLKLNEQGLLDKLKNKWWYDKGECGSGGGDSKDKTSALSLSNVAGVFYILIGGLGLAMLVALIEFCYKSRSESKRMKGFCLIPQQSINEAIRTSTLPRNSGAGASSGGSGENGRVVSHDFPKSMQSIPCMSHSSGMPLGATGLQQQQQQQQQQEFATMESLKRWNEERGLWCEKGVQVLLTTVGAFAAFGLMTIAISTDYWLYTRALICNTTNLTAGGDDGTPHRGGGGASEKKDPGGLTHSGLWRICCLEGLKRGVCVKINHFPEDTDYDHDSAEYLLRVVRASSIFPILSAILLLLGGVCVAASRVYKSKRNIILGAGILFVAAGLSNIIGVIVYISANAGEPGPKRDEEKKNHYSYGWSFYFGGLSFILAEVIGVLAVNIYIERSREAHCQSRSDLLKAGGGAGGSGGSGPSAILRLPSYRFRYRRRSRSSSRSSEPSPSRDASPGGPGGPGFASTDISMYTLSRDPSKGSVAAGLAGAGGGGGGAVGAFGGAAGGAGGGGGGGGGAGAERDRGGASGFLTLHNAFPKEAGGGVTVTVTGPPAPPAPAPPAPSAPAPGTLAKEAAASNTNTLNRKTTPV

`Cc1cc(-c2c(-c3ccc(F)cc3)ccc3nc(C(F)(F)F)nn23)cc2c1NC(=O)C2` [Example 57, 5-(6-(4-Fluorophenyl)-2-(trifluoromethyl)-[1,2,4]triazolo[1,5-a]pyridin-5-yl)-7-methylindolin-2-one]: the pIC50 was 10.20.

Turning to `Cc1cc(-c2c(-c3cccnc3)ccc3nc(C(F)(F)F)nn23)cc2cn[nH]c12` [Example 58, 5-(7-Methyl-1H-indazol-5-yl)-6-(pyridin-3-yl)-2-(trifluoromethyl)-[1,2,4]triazolo[1,5-a]pyridine], the pIC50 is 9.10.

On to `Cc1cc(-c2c(-c3ccncc3)ccc3nc(C(F)(F)F)nn23)cc2cn[nH]c12` [Example 59, 5-(7-Methyl-1H-indazol-5-yl)-6-(pyridin-4-yl)-2-(trifluoromethyl)-[1,2,4]triazolo[1,5-a]pyridine], for which the pIC50 was 8.20.

Take `Cc1nc2ccc(-c3ccc(F)cc3)c(-c3cc(C)c4[nH]ncc4c3)n2n1` [Example 60, 6-(4-Fluorophenyl)-2-methyl-5-(7-methyl-1H-indazol-5-yl)-[1,2,4]triazolo[1,5-a]pyridine]: the pIC50 is 8.90.

Regarding `CCc1nc2ccc(-c3ccc(F)cc3)c(-c3cc(C)c4[nH]ncc4c3)n2n1` [Example 61, 2-Ethyl-6-(4-fluorophenyl)-5-(7-methyl-1H-indazol-5-yl)-[1,2,4]triazolo[1,5-a]pyridine], the pIC50 is 9.70.

As to `Cc1cc(-c2c(-c3ccc(F)cc3)ccc3nc(C4CC4)nn23)cc2cn[nH]c12` [Example 62, 2-Cyclopropyl-6-(4-fluorophenyl)-5-(7-methyl-1H-indazol-5-yl)-[1,2,4]triazolo[1,5-a]pyridine], the pIC50 is 9.90.

Consider `FC(F)(F)c1cc2ccc(C(F)(F)F)c(-c3cc(Cl)c4[nH]ncc4c3)n2n1` [Example 63, 5-(2,6-Bis(trifluoromethyl)pyrazolo[1,5-a]pyridin-7-yl)-7-chloro-1H-indazole], for which the pIC50 was 10.80.

On to `Cc1cc(-c2c(C(F)(F)F)ccc3cc(C(F)(F)F)nn23)cc2cn[nH]c12` [Example 64, 5-(2,6-Bis(trifluoromethyl)pyrazolo[1,5-a]pyridin-7-yl)-7-methyl-1H-indazole], for which the negative logarithm of the IC50 (pIC50) was 10.80.

With `Cc1cc(-c2c(C(F)(F)F)ccc3cc(C(F)(F)F)nn23)cc2c1NC(=O)C2` [Example 65, 5-(2,6-Bis(trifluoromethyl)pyrazolo[1,5-a]pyridin-7-yl)-7-methylindolin-2-one], the pIC50 is 10.80.

In the case of `O=C1Cc2cc(-c3c(C(F)(F)F)ccc4cc(C(F)(F)F)nn34)cc(Cl)c2N1` [Example 66, 5-(2,6-Bis(trifluoromethyl)pyrazolo[1,5-a]pyridin-7-yl)-7-chloroindolin-2-one], the pIC50 is 10.90.

For `Cc1cc(-c2c(C(F)(F)F)ccc3cc(C4CC4)nn23)cc2c1NC(=O)C2` [Example 67, 5-(2-Cyclopropyl-6-(trifluoromethyl)pyrazolo[1,5-a]pyridin-7-yl)-7-methylindolin-2-one], the pIC50 was 10.30.

As for `O=C1Cc2cc(-c3c(C(F)(F)F)ccc4cc(C5CC5)nn34)cc(Cl)c2N1` [Example 68, 5-(2-Cyclopropyl-6-(trifluoromethyl)pyrazolo[1,5-a]pyridin-7-yl)-7-chloroindolin-2-one], the pIC50 is 10.70.

Take `Cc1cc(-c2c(C(F)(F)F)ccc3cc(C4CC4)nn23)cc2cn[nH]c12` [Example 69, 5-(2-Cyclopropyl-6-(trifluoromethyl)pyrazolo[1,5-a]pyridin-7-yl)-7-methyl-1H-indazole]: the pIC50 is 10.30.

With `FC(F)(F)c1ccc2cc(C3CC3)nn2c1-c1cc(Cl)c2[nH]ncc2c1` [Example 70, 7-Chloro-5-(2-cyclopropyl-6-(trifluoromethyl)pyrazolo[1,5-a]pyridin-7-yl)-1H-indazole], the pIC50 was 10.20.

On to `Cc1cc(-c2c(C(F)(F)F)ccc3cc(C(C)C)nn23)cc2c1NC(=O)C2` [Example 71, 5-(2-Isopropyl-6-(trifluoromethyl)pyrazolo[1,5-a]pyridin-7-yl)-7-methylindolin-2-one], for which the pIC50 is 10.80.

Turning to `CC(C)c1cc2ccc(C(F)(F)F)c(-c3cc(Cl)c4c(c3)CC(=O)N4)n2n1` [Example 72, 5-(2-Isopropyl-6-(trifluoromethyl)pyrazolo[1,5-a]pyridin-7-yl)-7-chloroindolin-2-one], the pIC50 is 10.90.

With `CC(C)c1cc2ccc(C(F)(F)F)c(-c3cc(Cl)c4[nH]ncc4c3)n2n1` [Example 73, 7-Chloro-5-(2-isopropyl-6-(trifluoromethyl)pyrazolo[1,5-a]pyridin-7-yl)-1H-indazole], the pIC50 was 11.00.

Regarding `Cc1cc(-c2c(C(F)(F)F)ccc3cc(C(C)C)nn23)cc2cn[nH]c12` [Example 74, 5-(2-Isopropyl-6-(trifluoromethyl)pyrazolo[1,5-a]pyridin-7-yl)-7-methyl-1H-indazole], the pIC50 was 10.10.

For `Cc1cc(C(F)(F)F)c(-c2cc(Cl)c3c(c2)CC(=O)N3)n2nc(C3CC3)nc12` [Example 75, 7-Chloro-5-(2-cyclopropyl-8-methyl-6-(trifluoromethyl)-[1,2,4]triazolo[1,5-a]pyridin-5-yl)indolin-2-one], the pIC50 is 9.90.

As for `Cc1cc(-c2c(C(F)(F)F)cc(C)c3nc(C4CC4)nn23)cc2cn[nH]c12` [Example 76, 2-Cyclopropyl-8-methyl-5-(7-methyl-1H-indazol-5-yl)-6-(trifluoromethyl)-[1,2,4]triazolo[1,5-a]pyridine], the pIC50 was 9.80.

On to `Cc1cc(C(F)F)c(-c2cc(Cl)c3[nH]ncc3c2)n2nc(C(F)(F)F)nc12` [Example 77, 5-(7-Chloro-1H-indazol-5-yl)-6-(difluoromethyl)-8-methyl-2-(trifluoromethyl)-[1,2,4]triazolo[1,5-a]pyridine], for which the pIC50 is 9.60.

Take `Cc1cc(C(F)(F)F)c(-c2cc(Cl)c3[nH]ncc3c2)n2nc(C(F)F)nc12` [Example 78, 5-(7-Chloro-1H-indazol-5-yl)-2-(difluoromethyl)-8-methyl-6-(trifluoromethyl)-[1,2,4]triazolo[1,5-a]pyridine]: the pIC50 is 9.90.

`Cc1cc(-c2c(C(F)(F)F)cc(C)c3nc(C(F)F)nn23)cc2cn[nH]c12` [Example 79, 2-(Difluoromethyl)-8-methyl-5-(7-methyl-1H-indazol-5-yl)-6-(trifluoromethyl)-[1,2,4]triazolo[1,5-a]pyridine]: the pIC50 is 9.40.

With `CCc1cc(C(F)(F)F)c(-c2cc(Cl)c3[nH]ncc3c2)n2nc(C3CC3)nc12` [Example 80, 5-(7-Chloro-1H-indazol-5-yl)-2-cyclopropyl-8-ethyl-6-(trifluoromethyl)-[1,2,4]triazolo[1,5-a]pyridine], the pIC50 was 9.80.

Take `CCc1cc(C(F)(F)F)c(-c2cc(C)c3[nH]ncc3c2)n2nc(C3CC3)nc12` [Example 81, 2-Cyclopropyl-8-ethyl-5-(7-methyl-1H-indazol-5-yl)-6-(trifluoromethyl)-[1,2,4]triazolo[1,5-a]pyridine]: the negative logarithm of the IC50 (pIC50) is 9.30.

As to `CCc1cc(C(F)(F)F)c(-c2cc(C)c3c(c2)CC(=O)N3)n2nc(C3CC3)nc12` [Example 82, 5-(2-Cyclopropyl-8-ethyl-6-(trifluoromethyl)-[1,2,4]triazolo[1,5-a]pyridin-5-yl)-7-methylindolin-2-one], the pIC50 is 9.50.
